Results taken from patent US10758534B2 (Vertex Pharmaceuticals Incorporated, priority 2014, dated 2020).

Target: T1, F508del (Homo sapiens, UniProt P13569, DEL508-508)
T1 construct: expressed in transfected cells
Test: Protocol 2: FRET membrane potential optical assay (VIPR), identification of correction compounds
Assay type: cell-based
Settings: F508del CFTR modulator activity; compounds of Table 1; read-out: EC30
How it was run: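 NIH3T3 mouse fibroblasts stably expressing F508del were treated with test compound for 16 hrs at 37° C. in serum-free medium; 27° C. incubation served as positive control. F508del was activated with 10 μM forskolin plus 20 μM genistein in Cl^−-free medium, and Cl^− efflux-driven depolarization was read by DiSBAC2(3)/CC2-DMPE FRET.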

T1 sequence (P13569 with tags, fused parts or gaps DEL508-508): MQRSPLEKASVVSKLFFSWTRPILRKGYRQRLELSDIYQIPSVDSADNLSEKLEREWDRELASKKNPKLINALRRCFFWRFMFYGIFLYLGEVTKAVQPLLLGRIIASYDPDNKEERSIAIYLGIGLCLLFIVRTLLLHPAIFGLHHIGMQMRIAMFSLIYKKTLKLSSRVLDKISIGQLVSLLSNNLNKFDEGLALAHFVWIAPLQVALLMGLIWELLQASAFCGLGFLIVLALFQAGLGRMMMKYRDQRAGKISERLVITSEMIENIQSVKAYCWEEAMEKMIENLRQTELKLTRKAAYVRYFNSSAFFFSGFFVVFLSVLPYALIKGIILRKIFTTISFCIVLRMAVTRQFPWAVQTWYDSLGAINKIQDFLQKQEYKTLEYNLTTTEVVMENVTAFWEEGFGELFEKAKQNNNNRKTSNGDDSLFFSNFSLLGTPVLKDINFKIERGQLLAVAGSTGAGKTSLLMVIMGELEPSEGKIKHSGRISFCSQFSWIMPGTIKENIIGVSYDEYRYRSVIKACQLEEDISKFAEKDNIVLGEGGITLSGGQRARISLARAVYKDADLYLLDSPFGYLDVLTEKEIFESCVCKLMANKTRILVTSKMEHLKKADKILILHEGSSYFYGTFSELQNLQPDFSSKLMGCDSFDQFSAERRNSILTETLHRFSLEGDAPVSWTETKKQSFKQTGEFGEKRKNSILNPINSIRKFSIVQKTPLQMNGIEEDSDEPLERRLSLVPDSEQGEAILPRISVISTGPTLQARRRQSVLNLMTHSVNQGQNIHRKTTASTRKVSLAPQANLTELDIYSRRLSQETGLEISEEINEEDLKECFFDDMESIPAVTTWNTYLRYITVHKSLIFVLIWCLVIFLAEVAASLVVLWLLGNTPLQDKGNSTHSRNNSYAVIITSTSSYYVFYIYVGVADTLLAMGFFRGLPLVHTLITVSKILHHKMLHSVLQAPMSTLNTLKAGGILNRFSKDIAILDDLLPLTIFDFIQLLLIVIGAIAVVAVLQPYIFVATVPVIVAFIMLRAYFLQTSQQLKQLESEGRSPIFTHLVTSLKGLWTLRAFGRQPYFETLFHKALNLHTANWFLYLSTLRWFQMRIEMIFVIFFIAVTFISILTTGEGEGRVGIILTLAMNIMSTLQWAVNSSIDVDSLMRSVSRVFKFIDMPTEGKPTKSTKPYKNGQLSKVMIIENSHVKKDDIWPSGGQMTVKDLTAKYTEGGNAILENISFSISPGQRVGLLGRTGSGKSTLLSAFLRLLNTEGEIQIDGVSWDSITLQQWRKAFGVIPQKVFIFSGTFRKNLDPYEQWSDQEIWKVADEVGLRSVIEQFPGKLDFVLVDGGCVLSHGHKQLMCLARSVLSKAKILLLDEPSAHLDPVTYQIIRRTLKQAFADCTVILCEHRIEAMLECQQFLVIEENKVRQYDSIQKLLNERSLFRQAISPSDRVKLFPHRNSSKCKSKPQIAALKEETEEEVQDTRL

Row | SMILES | EC30 [nM]
1 | Cc1cccc(-c2ccc(C(=O)NS(=O)(=O)c3ccc[nH]c3=O)c(N3C[C@@H](C)CC3(C)C)n2)c1C [Compound 2073, 6-(2,3-dimethylphenyl)-N-[(2-oxo-1H-pyridin-3-yl)sulfonyl]-2-[(4S)-2,2,4-trimethylpyrrolidin-1-yl]pyridine-3-carboxamide] | < 3000
2 | CC1CN(c2ncccc2C(=O)NS(=O)(=O)c2cccc(Nc3cccc4ncccc34)n2)C(C)(C)C1 (stereo not drawn) [Compound 2074, N—[[6-(5-quinolylamino)-2-pyridyl]sulfonyl]-2-(2,2,4-trimethylpyrrolidin-1-yl)pyridine-3-carboxamide] | 3000 to 10000
3 | CC(C)CCOc1cccc(S(=O)(=O)NC(=O)c2cccnc2N2CC(C)CC2(C)C)n1 (stereo not drawn) [Compound 2075, N-[(6-isopentyloxy-2-pyridyl)sulfonyl]-2-(2,2,4-trimethylpyrrolidin-1-yl)pyridine-3-carboxamide] | < 3000
4 | CC1CN(c2ncccc2C(=O)NS(=O)(=O)c2cccc(Oc3ccc(C#N)cc3)n2)C(C)(C)C1 (stereo not drawn) [Compound 2076, N—[[6-(4-cyanophenoxy)-2-pyridyl]sulfonyl]-2-(2,2,4-trimethylpyrrolidin-1-yl)pyridine-3-carboxamide] | < 3000
5 | CC1CN(c2ncccc2C(=O)NS(=O)(=O)c2cccc(O[C@H]3CCN(Cc4ccccc4)C3)n2)C(C)(C)C1 (stereo partly drawn) [Compound 2078, N—[[6-[(3S)-1-benzylpyrrolidin-3-yl]oxy-2-pyridyl]sulfonyl]-2-(2,2,4-trimethylpyrrolidin-1-yl)pyridine-3-carboxamide] | 3000 to 10000
6 | Cc1cc(-c2ccc(C(=O)NS(=O)(=O)c3cccc(N)n3)c(N3C[C@@H](C)CC3(C)C)n2)cc(OCCOC(C)C)n1 [Compound 2079, N-[(6-amino-2-pyridyl)sulfonyl]-6-[2-(2-isopropoxyethoxy)-6-methyl-4-pyridyl]-2-[(4S)-2,2,4-trimethylpyrrolidin-1-yl]pyridine-3-carboxamide] | < 3000
7 | COc1ccc(-c2ccc(C(=O)NS(=O)(=O)c3ccc[nH]c3=O)c(N3C[C@@H](C)CC3(C)C)n2)cc1 [Compound 2080, 6-(4-methoxyphenyl)-N-[(2-oxo-1H-pyridin-3-yl)sulfonyl]-2-[(4S)-2,2,4-trimethylpyrrolidin-1-yl]pyridine-3-carboxamide] | 3000 to 10000
8 | Cc1ccnc(Nc2cccc(S(=O)(=O)NC(=O)c3cccnc3N3CC(C)CC3(C)C)n2)c1 (stereo not drawn) [Compound 2082, N—[[6-[(4-methyl-2-pyridyl)amino]-2-pyridyl]sulfonyl]-2-(2,2,4-trimethylpyrrolidin-1-yl)pyridine-3-carboxamide] | 3000 to 10000
9 | CC1CN(c2ncccc2C(=O)NS(=O)(=O)c2cccc(Oc3ccccc3C(C)(C)C)n2)C(C)(C)C1 (stereo not drawn) [Compound 2083, N—[[6-(2-tert-butylphenoxy)-2-pyridyl]sulfonyl]-2-(2,2,4-trimethylpyrrolidin-1-yl)pyridine-3-carboxamide] | < 3000
10 | Cc1ccc(-c2ccc(C(=O)NS(=O)(=O)c3ccc[nH]c3=O)c(N3C[C@@H](C)CC3(C)C)n2)cc1F [Compound 2084, 6-(3-fluoro-4-methyl-phenyl)-N-[(2-oxo-1H-pyridin-3-yl)sulfonyl]-2-[(4S)-2,2,4-trimethylpyrrolidin-1-yl]pyridine-3-carboxamide] | < 3000
11 | CCCOc1ccc(C)cc1-c1ccc(C(=O)NS(=O)(=O)c2cccc(N)n2)c(N2C[C@@H](C)CC2(C)C)n1 [Compound 2085, N-[(6-amino-2-pyridyl)sulfonyl]-6-(5-methyl-2-propoxy-phenyl)-2-[(4S)-2,2,4-trimethylpyrrolidin-1-yl]pyridine-3-carboxamide] | < 3000
12 | COc1ncc(-c2ccc(C(=O)NS(=O)(=O)c3cccc(N)n3)c(N3C[C@@H](C)CC3(C)C)n2)cc1C [Compound 2086, N-[(6-amino-2-pyridyl)sulfonyl]-6-(6-methoxy-5-methyl-3-pyridyl)-2-[(4S)-2,2,4-trimethylpyrrolidin-1-yl]pyridine-3-carboxamide] | < 3000
13 | CC1CN(c2ncccc2C(=O)NS(=O)(=O)c2cccc(Nc3ccc(N4CCCCC4)cc3)n2)C(C)(C)C1 (stereo not drawn) [Compound 2087, N—[[6-[4-(1-piperidyl)anilino]-2-pyridyl]sulfonyl]-2-(2,2,4-trimethylpyrrolidin-1-yl)pyridine-3-carboxamide] | < 3000
14 | CC1CN(c2ncc(-c3ccc(CO)cc3)cc2C(=O)NS(=O)(=O)c2cccc(N)n2)C(C)(C)C1 (stereo not drawn) [Compound 2088, N-[(6-amino-2-pyridyl)sulfonyl]-5-[4-(hydroxymethyl)phenyl]-2-(2,2,4-trimethylpyrrolidin-1-yl)pyridine-3-carboxamide] | 3000 to 10000
15 | CC(C)COc1cccc(-c2cnc(N3CC(C)CC3(C)C)c(C(=O)NS(=O)(=O)c3cccc(N)n3)c2)c1 (stereo not drawn) [Compound 2089, N-[(6-amino-2-pyridyl)sulfonyl]-5-(3-isobutoxyphenyl)-2-(2,2,4-trimethylpyrrolidin-1-yl)pyridine-3-carboxamide] | < 3000
16 | COc1ccccc1CN(C)c1cccc(S(=O)(=O)NC(=O)c2cccnc2N2CC(C)CC2(C)C)n1 (stereo not drawn) [Compound 2090, N—[[6-[(2-methoxyphenyl)methyl-methyl-amino]-2-pyridyl]sulfonyl]-2-(2,2,4-trimethylpyrrolidin-1-yl)pyridine-3-carboxamide] | < 3000
17 | COc1ccc(-c2ccc(C(=O)NS(=O)(=O)c3cccnc3N)c(N3C[C@@H](C)CC3(C)C)n2)c(OC)n1 [Compound 2091, N-[(2-amino-3-pyridyl)sulfonyl]-6-(2,6-dimethoxy-3-pyridyl)-2-[(4S)-2,2,4-trimethylpyrrolidin-1-yl]pyridine-3-carboxamide] | < 3000
18 | C[C@@H]1CN(c2nc(-c3ccccc3)ccc2C(=O)NS(=O)(=O)c2ccccc2)C(C)(C)C1 [Compound 2092, N-(benzenesulfonyl)-6-phenyl-2-[(4S)-2,2,4-trimethylpyrrolidin-1-yl]pyridine-3-carboxamide] | < 3000
19 | Cc1cc(C)cc(-c2cnc(N3CC(C)CC3(C)C)c(C(=O)NS(=O)(=O)c3cccc(N)n3)c2)c1 (stereo not drawn) [Compound 2093, N-[(6-amino-2-pyridyl)sulfonyl]-5-(3,5-dimethylphenyl)-2-(2,2,4-trimethylpyrrolidin-1-yl)pyridine-3-carboxamide] | < 3000
20 | CC1CN(c2ncccc2C(=O)NS(=O)(=O)c2cccc(N3CCCC3c3ccccc3)n2)C(C)(C)C1 (stereo not drawn) [Compound 2094, N—[[6-(2-phenylpyrrolidin-1-yl)-2-pyridyl]sulfonyl]-2-(2,2,4-trimethylpyrrolidin-1-yl)pyridine-3-carboxamide] | < 3000
21 | CCCOc1ccc(-c2cnc(N3CC(C)CC3(C)C)c(C(=O)NS(=O)(=O)c3cccc(N)n3)c2)cc1C (stereo not drawn) [Compound 2095, N-[(6-amino-2-pyridyl)sulfonyl]-5-(3-methyl-4-propoxy-phenyl)-2-(2,2,4-trimethylpyrrolidin-1-yl)pyridine-3-carboxamide] | < 3000
22 | C[C@@H]1CN(c2nc(-c3ccc(C#N)cc3)ccc2C(=O)NS(=O)(=O)c2cccnc2N)C(C)(C)C1 [Compound 2096, N-[(2-amino-3-pyridyl)sulfonyl]-6-(4-cyanophenyl)-2-[(4S)-2,2,4-trimethylpyrrolidin-1-yl]pyridine-3-carboxamide] | < 3000
23 | C[C@@H]1CN(c2nc(C3CC4CCC3C4)ccc2C(=O)NS(=O)(=O)c2cccnc2N)C(C)(C)C1 (stereo partly drawn) [Compound 2097, N-[(2-amino-3-pyridyl)sulfonyl]-6-norbornan-2-yl-2-[(4S)-2,2,4-trimethylpyrrolidin-1-yl]pyridine-3-carboxamide] | < 3000
24 | CC1CN(c2ncccc2C(=O)NS(=O)(=O)c2cccc(N3CCc4ccccc4C3)n2)C(C)(C)C1 (stereo not drawn) [Compound 2098, N—[[6-(3,4-dihydro-1H-isoquinolin-2-yl)-2-pyridyl]sulfonyl]-2-(2,2,4-trimethylpyrrolidin-1-yl)pyridine-3-carboxamide] | < 3000
25 | CC1CN(c2ncccc2C(=O)NS(=O)(=O)c2cccc(OCc3ccc(F)cc3F)n2)C(C)(C)C1 (stereo not drawn) [Compound 2099, N—[[6-[(2,4-difluorophenyl)methoxy]-2-pyridyl]sulfonyl]-2-(2,2,4-trimethylpyrrolidin-1-yl)pyridine-3-carboxamide] | < 3000
26 | C[C@@H]1CN(c2nc(OC3CCCC3)c(F)cc2C(=O)NS(=O)(=O)c2cccc(N)n2)C(C)(C)C1 [Compound 2100, N-[(6-amino-2-pyridyl)sulfonyl]-6-(cyclopentoxy)-5-fluoro-2-[(4S)-2,2,4-trimethylpyrrolidin-1-yl]pyridine-3-carboxamide] | < 3000
27 | COc1cccc(-c2ccc(C(=O)NS(=O)(=O)c3ccc[nH]c3=O)c(N3C[C@@H](C)CC3(C)C)n2)n1 [Compound 2101, 6-(6-methoxy-2-pyridyl)-N-[(2-oxo-1H-pyridin-3-yl)sulfonyl]-2-[(4S)-2,2,4-trimethylpyrrolidin-1-yl]pyridine-3-carboxamide] | < 3000
28 | CC1CN(c2ncccc2C(=O)NS(=O)(=O)c2cccc(Nc3ccc(F)cc3)n2)C(C)(C)C1 (stereo not drawn) [Compound 2102, N—[[6-(4-fluoroanilino)-2-pyridyl]sulfonyl]-2-(2,2,4-trimethylpyrrolidin-1-yl)pyridine-3-carboxamide] | < 3000
29 | CCOc1cccc(F)c1-c1ccc(C(=O)NS(=O)(=O)c2cccnc2N)c(N2C[C@@H](C)CC2(C)C)n1 [Compound 2103, N-[(2-amino-3-pyridyl)sulfonyl]-6-(2-ethoxy-6-fluoro-phenyl)-2-[(4S)-2,2,4-trimethylpyrrolidin-1-yl]pyridine-3-carboxamide] | < 3000
30 | C[C@@H]1CN(c2nc(-c3ccc4c(c3)OC(F)(F)O4)ccc2C(=O)NS(=O)(=O)c2cccc(N)n2)C(C)(C)C1 [Compound 2104, N-[(6-amino-2-pyridyl)sulfonyl]-6-(2,2-difluoro-1,3-benzodioxol-5-yl)-2-[(4S)-2,2,4-trimethylpyrrolidin-1-yl]pyridine-3-carboxamide] | < 3000
